Experimental data from ChEMBL document CHEMBL5107986, “Small molecule NS5B RdRp non-nucleoside inhibitors for the treatment of HCV infection: A medicinal chemistry perspective” (Eur J Med Chem, 2022).

Assays:
Format in all cases: functional, organism-based, Hepacivirus hominis
[1] = tested on: Hepatitis C virus; assay: Antiviral activity against HCV GT1b assessed as inhibition of viral replication
[2] = tested on: Hepatitis C virus; assay: Antiviral activity against HCV GT1b assessed as reduction in viral replication
[3] = tested on: Hepatitis C virus; assay: Antiviral activity against intrinsic HCV GT1a assessed as reduction in viral replication
[4] = tested on: Hepatitis C virus; assay: Antiviral activity against intrinsic HCV GT2a assessed as reduction in viral replication
[5] = tested on: Hepatitis C virus; assay: Antiviral activity against HCV GT1b C316Y assessed as reduction in viral replication
[6] = tested on: Hepatitis C virus; assay: Antiviral activity against HCV GT1b 316N assessed as reduction in viral replication

| Structure (SMILES) | EC50 [2] [nM] | EC50 [3] [nM] | also measured |
| --- | --- | --- | --- |
| Cn1c(-c2ncc(Br)cn2)c(C2CCCC2)c2ccc(C(=O)NC3(c4nc5ccc(/C=C/C(=O)O)cc5[nH]4)CCC3)cc21 | 11 | – | IC50 [1]: 50 nM |
| CC(C)(C)C#Cc1cc(N(C(=O)[C@H]2CC[C@H](C)CC2)[C@H]2CC[C@H](Oc3cccnc3)CC2)c(C(=O)O)s1 | – | 3.6 | – |
| CNC(=O)c1c(-c2ccc(F)cc2)oc2cc(N(C)S(C)(=O)=O)c(-c3ccc4c(n3)-c3cc5c(F)cccc5n3CO4)cc12 [MK-8876] | 2.2 | – | EC50 [4]: 2.7 nM; EC50 [5]: 7.3 nM |
| CNC(=O)c1c(-c2ccc(F)cc2)oc2cc(N(CCO)S(C)(=O)=O)c(C3CC3)cc12 [NESBUVIR] | 18 | – | EC50 [6]: 170 nM |
| CNC(=O)c1c(-c2ccc(F)cc2)oc2cc(N(C)S(C)(=O)=O)c(-c3cccc(CNS(=O)(=O)c4cccc(OC)c4)c3)cc12 | 1 | – | EC50 [4]: 6 nM |
| CC1=CC[C@H](C(=O)N(c2cc(C#CC(C)(C)C)sc2C(=O)O)C(C)C)CC1 | – | 2.2 | – |
| CNC(=O)c1c(-c2ccc(F)cc2)oc2cc(N(C)S(C)(=O)=O)c(-c3ccc(OC)c(-c4nc5c(F)cccc5o4)c3)cc12 | 3.1 | – | EC50 [5]: 9.2 nM |
| CC(C)(C)C#Cc1cc(N(C(=O)[C@H]2CC[C@H](C)CC2)[C@H]2CC[C@H](OC3CCOC3)CC2)c(C(=O)O)s1 (stereo partly specified) | – | 8.1 | – |
| CNC(=O)c1c(-c2ccc(F)cc2)oc2cc(N(c3cc(Cl)c4c(c3)COB4O)S(C)(=O)=O)c(C3CC3)cc12 | 2.5 | 1.3 | EC50 [6]: 2.5 nM |
| CNC(=O)c1c(-c2ccc(F)cc2)oc2cc(N(C)S(C)(=O)=O)c(-c3ccc(OC)cc3)cc12 | 16 | – | EC50 [4]: 60 nM |
| CC(C)N(c1cc(C#CC(C)(C)C)sc1C(=O)O)C(=O)[C@H]1CC[C@H](C)CC1 | – | 5.5 | – |
| CC(C)(C)C#Cc1cc(N(C(=O)[C@H]2CC[C@H](C)CC2)[C@H]2CC[C@](O)(CO[C@H]3CCOC3)CC2)c(C(=O)O)s1 | – | 2.2 | – |
| CC1=CC[C@H](C(=O)N(c2cc(C#CC(C)(C)C)sc2C(=O)O)[C@H]2CC[C@](O)(CO[C@H]3CCOC3)CC2)CC1 [RADALBUVIR] | 6 | 2.9 | – |
| O=C1N/C(=N\c2nnc(-c3ccc(Cl)cc3)s2)S/C1=C\c1c(Cl)cccc1Cl | – | – | IC50 [1]: 5600 nM |
| CNC(=O)c1c(-c2ccc(F)cc2)oc2cc(N(Cc3ccc(B(O)O)c(F)c3)S(C)(=O)=O)c(C3CC3)cc12 | 1.7 | – | EC50 [5]: 1.9 nM |
| O=C1N/C(=N\c2nnc(-c3ccc(F)cc3)s2)S/C1=C\c1c(Cl)cccc1Cl | – | – | IC50 [1]: 19800 nM |
| COc1ccc2c(c1)C=C1Cn3c-2c(C2CCCCC2)c2ccc(cc23)C(=O)NS(=O)(=O)N(C)CCCCN(C)C1=O | 75 | – | IC50 [1]: 26 nM |
| CNC(=O)c1c(-c2ccc(F)cc2)oc2cc(N(CCO)S(C)(=O)=O)c(-c3ccccc3)cc12 | 62 | – | – |
| CNC(=O)c1c(-c2ccc(F)cc2)oc2cc(N(C)S(C)(=O)=O)c(-c3ccccc3)cc12 | 120 | – | – |
